Test results reported in paper PMC10786692 (The Journal of Clinical Investigation, 2024).

How the values were obtained:
γH2AX = assay: PBMC γH2AX immunofluorescence (% cells with >5 foci); format: in vivo, human; conditions: after treatment at the RP2D, most subjects
Experimental: PD sampling took place at baseline (within 7 days prior to dosing) and between days 15 and 22 of dosing (day 14 for intermittent dosing cohorts). PD samples included PBMCs and tumor biopsies. PBMCs were analyzed by immunofluorescence for γ^(S139)H2AX, p-^(S345)Chk1, and total Chk1, as described in Supplemental Methods. Paired tumor biopsies were formalin fixed and analyzed for nuclear p-^(S635)Rad50 and γH2AX by IHC.
PBMCs were isolated from blood using BD Vacutainer® CPT™ Cell preparation tubes with sodium citrate (BD Biosciences, Wokingham, UK) and fixed with 4% formalin containing 1% Triton™ X-100 (Sigma-Aldrich, St. Louis, MO). […] A Carl Zeiss LSM 700 confocal laser scanning fluorescence microscope (Zeiss, Jena, Germany) was used to visualize and capture images of the PBMCs. Fluorescent nuclear intensity for phospho-(S345) and total Chk1 in individual PBMC cells were quantified using the IN Cell Investigator Developer Toolbox v1.9 software (GE Healthcare Biosciences, Piscataway, NJ). For the phospho(S345)- and total Chk1 assays: the raw data values (fluorescent nuclear intensity for PBMCs), the percentage change for phospho(S345) biomarker was calculated for each subject by comparing the levels measured at each post-dose time point to pre-dose levels measured at baseline. […]
Peripheral blood was drawn into 8 mL EDTA tubes (Vacutainer, BD) and analyzed within 24 hours. […]

ATR = conditions: preclinical; cited from earlier work
plasma cytokines = assay: Plasma cytokines, Bio-Plex Pro 27-plex; format: in vivo, human; conditions: after 2 weeks of treatment
Experimental: DNA-Seq of tumor and matched buffy coats was either by whole-exome sequencing or a custom-designed panel targeting all exons of genes of interest for 173 genes, including potential markers of sensitivity to ATRi. ACK-lysed whole blood or PBMCs were stained for flow cytometry using 8 multicolor panels. Plasma cytokines were assessed using the Bio-Plex Pro 27-Plex Panel (Bio-Rad). See Supplemental Methods for full information.
Plasma was taken from EDTA tubes (BD vacutainer) used for buffy coat or immune profiling samples. Plasma was removed, re-spun and aliquoted into 1.5 mL tubes and stored at -70 OC until analysis. Samples were run in duplicate using the Bio-Plex Pro Human Cytokine 27-plex panel (Bio-Rad) as per manufacturer’s instructions.
Criteria for Dose Limiting Toxicity
1. Hematological toxicity
1. Grade 3 thrombocytopenia with bleeding
2. Grade 4 thrombocytopenia
3. Grade 4 neutropenia lasting >7 days in the absence of growth factor
4. Grade 4 neutropenia of any duration accompanied by fever ≥ 38.5°C and/or systemic infection
5. Any other grade ≥4 hematological toxicity
2. Cardiovascular toxicity
1. Clinically significant hypotension defined as an asymptomatic fall in systolic blood pressure more than 20mmHg to below 70mmHg persisting for at least 10 minutes
2. Symptomatic orthostatic fall in systolic blood pressure of more than 20mmHg compared to resting supine blood pressure
3. Prolongation of QTc >0.5 seconds (using an appropriate correction […]
3. Gastrointestinal/hepatic toxicity
1. ALT or AST >5 times ULN; ALP >5 times ULN with elevated gamma- GT

[1] = Treatment-related adverse events (CTCAE v4.03), PATRIOT phase I; format: in vivo; conditions: for TRAE Overall events: n: Total
Experimental: For part A (dose escalation; Figure 1, A and B), the starting dose of 20 mg was selected based on animal toxicity studies. Dosing was continuous, and escalation used a modified Fibonacci method. Initial dose escalation was planned in single patient cohorts, changing to 3+3 design after the first grade-2 toxicity was seen. […] DLT definitions are in the Supplemental Methods.
For part B, all patients received the RP2D as defined for part A. Part B allowed for different schedules (continuous/intermittent) to be assessed. Initially, a continuous dosing schedule was used for the first 6 patients. […] Pretreatment biopsy was mandatory in part B. DNA-Seq of archival tumor material or review of external tumor sequencing was used to enrich for patients with putative genomic markers of sensitivity to ATRi, based on preclinical data, including oncogene amplification or driver mutation, ATM/G1 pathway defects (alteration in ATM, CHK2, or other components of the pathway causing G1 cell-cycle arrest after DNA damage), SWI/SNF (switch/sucrose nonfermentable, a chromatin-remodeling complex) pathway defect, genomic instability/homologous recombination deficit (HRD), or defect in a gene synthetically lethal with ATRi in published data ([46], [47]) (Figure 1B and Supplemental Table 3).
Patients were assessed weekly during cycle 1 and twice weekly thereafter, with safety assessments including blood hematology and biochemistry, physical examination, and toxicity scoring.

[2] = 160 mg BD intermittent schedule

C[C@@H]1COCCN1c1cc(C2([S@](C)(=N)=O)CC2)nc(-c2cc[nH]c3nccc2-3)n1 [ceralasertib]
γH2AX positivity in PBMCs (γH2AX): Increased | IC90 (ATR): […] | Circulating CCL2 level (plasma cytokines): increase | Circulating CCL4 level (plasma cytokines): decrease | Circulating CCL5 level (plasma cytokines): decrease | TRAE Overall events: n (%) ([1]; 40 mg BD, G1–2): 7 (100) | TRAE Overall events: n (%) ([1]; 40 mg BD, G3): 0 | TRAE Overall events: n ([1]; 40 mg BD): 7 | TRAE Overall events: n (%) ([1]; 80 mg BD, G1–2): 18 (78) | TRAE Overall events: n (%) ([1]; 80 mg BD, G3): 5 (22) | TRAE Overall events: n ([1]; 80 mg BD): 23 | Tolerability of intermittent versus continuous schedule ([1]; 160 mg BD): better tolerated | Incidence of G3 leukopenia ([1]; 160 mg BD continuous schedule): 8% | Incidence of G3 or greater anemia ([1]; 160 mg BD continuous schedule): 33% | TRAE Overall events: n (%) ([1]; 160 mg BD continuous, G1–2): 44 (90) | TRAE Overall events: n (%) ([1]; 160 mg BD continuous, G3): 5 (10) | TRAE Overall events: n ([1]; 160 mg BD continuous): 49 | Incidence of G3 leukopenia [1, 2]: 0% | Incidence of G3 or greater anemia [1, 2]: 9% | TRAE Overall events: n (%) ([1]; 160 mg BD intermittent, G1–2): 100 (89) | TRAE Overall events: n (%) ([1]; 160 mg BD intermittent, G3): 11 (10) | TRAE Overall events: n (%) ([1]; 160 mg BD intermittent, G4): 1 (1) | TRAE Overall events: n ([1]; 160 mg BD intermittent): 112 | TRAE Overall events: n (%) ([1]; 240 mg BD, G1–2): 26 (77) | TRAE Overall events: n (%) ([1]; 240 mg BD, G3): 8 (24) | TRAE Overall events: n (%) ([1]; 240 mg BD, G4): 7 (21) | Related SAE ([1]; 20 and 40 mg dose levels): N o related SAE | Treatment-related deaths ([1]; all 67 treated patients): no treatment-related deaths | Patients requiring dose reduction or interruption for toxicity ([1]; continuous schedule (incl. part A), 6 of 12): 50% | Patients withdrawn due to toxicity ([1]; dose-escalation phase): Four | Patients withdrawn due to toxicity ([1]; dose-expansion phase): 1 | Patients requiring dose reduction or interruption for toxicity ([1]; intermittent schedule, 10 of 35): 29%
